# Publication PMC10402865, “Fragment-based design, synthesis and biological evaluation of theophylline derivatives as ATAD2 inhibitors in BT-549 cells” (Journal of Enzyme Inhibition and Medicinal Chemistry, 2023)
# How the values were obtained:
# [1] = test system: BT-549 cells; test: Cell viability (MTT) assay, anti-proliferative activity; type: cell-based; conditions: Homo sapiens, MTT, 24 h, mean ± SD
# Experimental: BT-549 cells were seeded at a density of 5 × 10^4 cells/ml in a 96-well plate. Following a 24-h incubation period, the cells were exposed to various concentrations of different compounds for the specified durations. Cell viability was evaluated using an MTT assay.
# [2] = test system: ATAD2, c-Myc, and p-c-Myc^Ser62 in BT-549 cells; test: Western blot of ATAD2, c-Myc and p-c-Myc Ser62; type: cell-based; conditions: BT-549 cells, 5, 10, 20 μM, 48h
# Experimental: Cells were exposed to AM879, BAY-850 or compound 19f for the specified time intervals. Both adherent and floating cells were harvested and subsequently resuspended in a lysis buffer, followed by incubation at 4 °C for 1 h. Following centrifugation at 12,000 rpm for 20 min, the protein content of the supernatant was quantified using the BCA protein assay. Then protein were separated by 8–15% SDS-PAGE and transferred onto PVDF membranes. The membranes were blocked with blocking buffer and subjected to primary antibody incubation, followed by incubation with HRP-conjugated secondary antibody. Protein detection was achieved using ECL as the HRP substrate.
# [3] = test system: ATAD2; conditions: cited from earlier work
# [4] = molecular target: T1, ATAD2 recombinant bromodomain protein (Homo sapiens, UniProt Q6PL18); test: ATAD2 enzymatic assay by TR-FRET technology; type: binding; conditions: TR-FRET; for IC50: mean ± SD, read-out: Kinase inhibitory activity (IC50, μM) ATAD2
# T1 sequence (Q6PL18 980-1092 limits assumed): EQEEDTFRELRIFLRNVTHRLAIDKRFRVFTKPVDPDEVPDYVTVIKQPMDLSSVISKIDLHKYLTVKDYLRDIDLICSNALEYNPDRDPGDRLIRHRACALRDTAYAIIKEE
# Experimental: The assay was performed by TR-FRET technology using recombinant bromodomain and BET Ligand[8]. The compounds were diluted with indicated folds in 5% DMSO in reaction buffer and 2 µl of the dilution was added to a 20 µl reaction so that the final concentration of DMSO is 0.5% in all of the reactions. The 20 µl reaction mixture consists of the ATAD2 recombinant bromodomain protein, the indicated amount of the inhibitor, ligand, and the reactive dyes. The reaction mixture was incubated for 3 h before reading the TR-FRET signal. Fluorescence signals for both the donor and acceptor dyes were measured using a Tecan Infinite M1000 plate reader. Binding experiments were performed in duplicate at each concentration and the data were analysed using GraphPad Prism.
IC50 [1],IC50 [4],melting point,"ATAD2 inhibitory activity, in words [4]",SMILES,expression levels of c-Myc and p-c-Myc Ser62 (western blot) [2],expression of ATAD2 (western blot) [2],IC50 [3]
> 30 µM,> 25 µM,197 to 198 °C,–,"COc1ccc(C(=O)NC2CCCCCC2)cc1NC(=O)Cn1cnc2c(=O)n(C)c(=O)n(C)c21 [Compound 19l, N-cycloheptyl-3–(2-(1,3-dimethyl-2,6-dioxo-1,2,3,6-tetrahydro-9H-purin-9-yl)acetamido)-4-methoxybenzamide]",–,–,–
21.9 ± 4.03 µM,9.19 ± 1.9 µM,231 to 233 °C,–,"COc1ccc(C(=O)NC2CC2)cc1NC(=O)Cn1cnc2c(=O)n(C)c(=O)n(C)c21 [Compound 19c, N-cyclopropyl-3–(2-(1,3-dimethyl-2,6-dioxo-1,2,3,6-tetrahydro-9H-purin-9-yl)acetamido)-4-methoxybenzamide]",–,–,–
22 ± 3.35 µM,12.3 ± 3.06 µM,185 to 187 °C,–,"COc1ccc(C(=O)NC2CCCCC2)cc1NC(=O)Cn1cnc2c(=O)n(C)c(=O)n(C)c21 [Compound 19i, N-cyclohexyl-3–(2-(1,3-dimethyl-2,6-dioxo-1,2,3,6-tetrahydro-9H-purin-9-yl)acetamido)-4-methoxybenzamide]",–,–,–
26.1 ± 3.77 µM,15.2 ± 3.63 µM,262 to 264 °C,–,"Cn1c(=O)c2ncn(CC(=O)Nc3cc(C(=O)N4CCOCC4)ccc3Cl)c2n(C)c1=O [Compound 15j, N-(2-chloro-5-(morpholine-4-carbonyl)phenyl)-2–(1,3-dimethyl-2,6-dioxo-1,2,3,6-tetrahydro-9H-purin-9-yl)acetamide]",–,–,–
11.7 ± 2.46 µM,19.7 ± 4.38 µM,199 to 201 °C,–,"Cc1ccc(C(=O)NC2CCCCC2)cc1NC(=O)Cn1cnc2c(=O)n(C)c(=O)n(C)c21 [Compound 19h, N-cyclohexyl-3–(2-(1,3-dimethyl-2,6-dioxo-1,2,3,6-tetrahydro-9H-purin-9-yl)acetamido)-4-methylbenzamide]",–,–,–
> 30 µM,> 25 µM,194 to 196 °C,–,"Cc1ccc(C(=O)NC2CCCCCC2)cc1NC(=O)Cn1cnc2c(=O)n(C)c(=O)n(C)c21 [Compound 19k, N-cycloheptyl-3–(2-(1,3-dimethyl-2,6-dioxo-1,2,3,6-tetrahydro-9H-purin-9-yl)acetamido)-4-methylbenzamide]",–,–,–
18.7 ± 3.06 µM,9.06 ± 1.81 µM,218 to 219 °C,–,"Cc1ccc(C(=O)NC2CC2)cc1NC(=O)Cn1cnc2c(=O)n(C)c(=O)n(C)c21 [Compound 19b, N-cyclopropyl-3–(2-(1,3-dimethyl-2,6-dioxo-1,2,3,6-tetrahydro-9H-purin-9-yl)acetamido)-4-methylbenzamide]",–,–,–

# The remaining lines, values behind:
SMILES,IC50 [1],IC50 [4],melting point,"ATAD2 inhibitory activity, in words [4]",expression levels of c-Myc and p-c-Myc Ser62 (western blot) [2],expression of ATAD2 (western blot) [2],IC50 [3]
COc1cc(Cl)c(C(=O)N[C@@H](CN[C@H]2CC[C@@H](N)CC2)Cc2ccc(C#N)cc2)cc1-c1ccc(CN[C@H](C)c2ccc(C)cc2)o1 [BAY-850],3.45 ± 0.59 µM,–,–,–,reduced c-Myc expression and ser62 the phosphorylation at ser62 in a dose-dependent manner,inhibited the expression of ATAD2,0.02 µM
C[C@H]1CCN(S(=O)(=O)c2cc(NC(=O)CN3C(=O)N[C@@](C)(C4CC4)C3=O)ccc2Br)C1 [Compound 2],–,–,–,–,–,–,0.063 µM
CO[C@H]1CNC[C@@H](OCC2CCC(F)(F)CC2)[C@@H]1Nc1ncc(-c2cncc(C)c2)c2cc(C)c(=O)[nH]c12 [GSK8814],–,–,–,–,–,–,0.059 µM
Cc1nnc2c(NC3CCN(CC(C)(C)F)CC3)cc(C(=O)N3C4Cc5ccccc5C3C(C(C)C)NC4=O)nn12 (centres unmarked) [AZ4347],–,–,–,–,–,–,0.02 µM
"Cc1ccc(C(=O)N2CCSCC2)cc1NC(=O)Cn1cnc2c(=O)n(C)c(=O)n(C)c21 [Compound 15b, 2–(1,3-dimethyl-2,6-dioxo-1,2,3,6-tetrahydro-9H-purin-9-yl)-N-(2-methyl-5-(thiomorpholine-4-carbonyl)phenyl)acetamide]",> 30 µM,19.3 ± 2.35 µM,251 to 252 °C,weak inhibitory activities against ATAD2,–,–,–
"Cn1c(=O)c2ncn(CC(=O)Nc3cccc(C(=O)N4CCOCC4)c3)c2n(C)c1=O [Compound 15g, 2–(1,3-dimethyl-2,6-dioxo-1,2,3,6-tetrahydro-9H-purin-9-yl)-N-(3-(morpholine-4-carbonyl)phenyl)acetamide]",> 30 µM,21.2 ± 3.17 µM,266 to 268 °C,weak inhibition potency,–,–,–
"Cc1ccc(C(=O)N2CCOCC2)cc1NC(=O)Cn1cnc2c(=O)n(C)c(=O)n(C)c21 [Compound 15h, 2–(1,3-dimethyl-2,6-dioxo-1,2,3,6-tetrahydro-9H-purin-9-yl)-N-(2-methyl-5-(morpholine-4-carbonyl)phenyl)acetamide]",> 30 µM,> 25 µM,270 to 271 °C,–,–,–,–
CC(C)N1CCc2c(nnn2CC(=O)Nc2ccc(Br)c(S(=O)(=O)N3CC[C@H](C)C3)c2)C1 [GSK232],–,–,–,–,–,–,0.032 µM
"Cn1c(=O)c2ncn(CC(=O)Nc3cccc(C(=O)N4CCSCC4)c3)c2n(C)c1=O [Compound 15a, 2–(1,3-dimethyl-2,6-dioxo-1,2,3,6-tetrahydro-9H-purin-9-yl)-N-(3-(thiomorpholine-4-carbonyl)phenyl)acetamide]",> 30 µM,> 25 µM,246 to 248 °C,without ATAD2 inhibition activity,–,–,–
"Cn1c(=O)c2ncn(CC(=O)Nc3cccc(C(=O)N4CCS(=O)(=O)CC4)c3)c2n(C)c1=O [Compound 15d, 2–(1,3-dimethyl-2,6-dioxo-1,2,3,6-tetrahydro-9H-purin-9-yl)-N-(3–(1,1-dioxidothiomorpholine-4-carbonyl)phenyl)acetamide]",> 30 µM,> 25 µM,224 to 226 °C,–,–,–,–
